Publication PMC3411462, “Long-acting κ opioid antagonists nor-BNI, GNTI and JDTic: pharmacokinetics in mice and lipophilicity” (BMC Pharmacology, 2012)
“Also recorded” adds a separate entry of the source.

Key:
[1] = Plasma binding (unbound fraction by ultracentrifugation); type: in vitro ADME; conditions: 5 μM drug, mean, n = 3
Method: Unbound fractions in brain homogenate and plasma were determined by ultracentrifugation as described previously. Briefly, drug-spiked matrices (5 μM drug in plasma or brain homogenate) were centrifuged at 600,000 g for 5 h at 37 °C (plasma) or 5 °C (brain). Aliquots of the middle (water) layer were added to an equal volume of blank matrix and extracted with 5 volumes of acetonitrile containing internal standard. Aliquots of the original spiked matrix were mixed with an equal volume of blank matrix and 2 volumes of plasma ultrafiltrate (plasma) or phosphate-buffered saline (tissue) and extracted with 10 volumes of acetonitrile. Extracts were centrifuged and analyzed by LC-MS-MS. Fraction unbound was calculated from the ratio of concentration in the water layer to that in the original spiked matrix, corrected for dilution as described previously.

[2] = Brain homogenate binding (unbound fraction by ultracentrifugation); type: in vitro ADME
Method: Unbound fractions in brain homogenate and plasma were determined by ultracentrifugation as described previously. Briefly, drug-spiked matrices (5 μM drug in plasma or brain homogenate) were centrifuged at 600,000 g for 5 h at 37 °C (plasma) or 5 °C (brain). Aliquots of the middle (water) layer were added to an equal volume of blank matrix and extracted with 5 volumes of acetonitrile containing internal standard. Aliquots of the original spiked matrix were mixed with an equal volume of blank matrix and 2 volumes of plasma ultrafiltrate (plasma) or phosphate-buffered saline (tissue) and extracted with 10 volumes of acetonitrile. Extracts were centrifuged and analyzed by LC-MS-MS. Fraction unbound was calculated from the ratio of concentration in the water layer to that in the original spiked matrix, corrected for dilution as described previously. Based on previous results for basic drugs, in vivo free fraction in brain was assumed to be at least 3-fold lower than the in vitro free fraction in brain homogenate.

[3] = target: T1, P-gp (human MDR1) (Homo sapiens, UniProt P08183); assay: LLC-PK1-MDR1 cell permeation and efflux; type: in vitro ADME; conditions: for Papp A→B at 120 min, 5 μM / Papp B→A at 120 min, 5 μM: pig (LLC-PK1 cells) transfected with human MDR1, LLC-PK1, 0.1% BSA, n = 2; for Papp A→B at 120 min, 5 μM: apical to basolateral; for Papp B→A at 120 min, 5 μM: basolateral to apical; for efflux ratio at 120 min, 5 μM: pig (LLC-PK1 cells) transfected with human MDR1, LLC-PK1-MDR1 monolayers, read-out: Efflux ratio (B → A/A → B)
T1 construct: expressed in transfected cells; host or cells: LLC-PK1 (pig kidney epithelial cells) transfected with human MDR1 at Amgen
Method: (§1) Pig kidney epithelial cells (LLC-PK1) were obtained from American Type Culture Collection (Manassas, VA). Transfection with human MDR1 gene was conducted at Amgen (Thousand Oaks, CA). Bi-directional permeation assays were performed as described previously. […] Cells were seeded onto Transwell filter membranes (0.4 μm pore size, surface area = 0.7 cm2) at a density of 200,000 cells/well. Compound incubations (in duplicate) were performed 5 days post-seeding. To determine efflux, compounds were tested at 5 μM in the presence of 0.1% BSA. […] Samples were analyzed by LC-MS-MS.

[4] = target: T2, human P-gp (Homo sapiens, UniProt P08183); assay: LLC-PK1-MDR1 cell permeation and efflux; type: in vitro ADME; conditions: cells expressing human P-gp
T2 construct: expressed in transfected cells; host or cells: LLC-PK1 (pig kidney epithelial cells) transfected with human MDR1 at Amgen
Method: as §1

[5] = test system: mice; assay: Fatalities and behavioral effects after i.p. administration
Method: Experiments were performed between 10 am and 6 pm. Mice were not used in other experiments, or exposed to other drugs, before testing began.
Doses are reported by weight of the specified salt. Intraperitoneal injections were administered in distilled water vehicle (10 mL kg^-1). Body mass was measured to ±0.1 g. Some values were inadvertently measured on a low-precision balance (± 2.5 g); these timepoints were replicated at ±0.1 g.

[6] = 5 μM drug, mean, n = 3, corrected for dilution, read-out: Fraction unbound, Brain homogenate
[7] = Brain homogenate, read-out: % free (uncorrected)

T1 sequence (P08183 whole entry): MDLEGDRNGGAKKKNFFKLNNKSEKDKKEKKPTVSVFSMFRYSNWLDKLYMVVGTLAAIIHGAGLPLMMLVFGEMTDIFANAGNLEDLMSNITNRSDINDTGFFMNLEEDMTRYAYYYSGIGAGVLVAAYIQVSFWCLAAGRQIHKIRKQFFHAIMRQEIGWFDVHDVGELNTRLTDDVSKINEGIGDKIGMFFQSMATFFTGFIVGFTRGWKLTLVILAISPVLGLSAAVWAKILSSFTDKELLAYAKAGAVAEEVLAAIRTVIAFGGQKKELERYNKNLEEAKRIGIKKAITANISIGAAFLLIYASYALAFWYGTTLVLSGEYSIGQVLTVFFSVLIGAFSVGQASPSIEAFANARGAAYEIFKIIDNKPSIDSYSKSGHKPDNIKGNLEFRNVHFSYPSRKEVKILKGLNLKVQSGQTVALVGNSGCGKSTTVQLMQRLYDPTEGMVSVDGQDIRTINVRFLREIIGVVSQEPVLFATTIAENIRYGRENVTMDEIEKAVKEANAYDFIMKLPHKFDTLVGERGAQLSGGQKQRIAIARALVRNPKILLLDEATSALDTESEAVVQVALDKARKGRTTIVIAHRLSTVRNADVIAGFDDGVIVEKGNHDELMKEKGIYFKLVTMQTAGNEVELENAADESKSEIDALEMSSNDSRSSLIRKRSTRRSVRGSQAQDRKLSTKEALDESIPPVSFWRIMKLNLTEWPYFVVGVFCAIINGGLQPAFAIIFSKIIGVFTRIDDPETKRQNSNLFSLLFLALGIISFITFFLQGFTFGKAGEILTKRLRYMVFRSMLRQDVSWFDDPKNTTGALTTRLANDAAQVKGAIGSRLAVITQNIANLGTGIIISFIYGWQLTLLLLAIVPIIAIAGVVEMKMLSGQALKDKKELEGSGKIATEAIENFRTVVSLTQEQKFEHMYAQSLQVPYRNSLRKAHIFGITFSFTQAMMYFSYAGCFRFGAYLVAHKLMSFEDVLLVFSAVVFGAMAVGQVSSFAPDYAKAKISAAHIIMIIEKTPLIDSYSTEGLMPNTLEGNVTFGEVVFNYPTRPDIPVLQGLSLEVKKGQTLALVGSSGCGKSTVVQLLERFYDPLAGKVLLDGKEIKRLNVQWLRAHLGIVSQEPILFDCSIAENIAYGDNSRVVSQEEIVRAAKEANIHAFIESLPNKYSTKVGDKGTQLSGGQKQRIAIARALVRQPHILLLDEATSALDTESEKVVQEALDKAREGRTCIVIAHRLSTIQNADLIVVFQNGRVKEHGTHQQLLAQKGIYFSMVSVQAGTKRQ
T2 sequence (P08183 whole entry): as above

CC(C)[C@@H](CN1CC[C@@](C)(c2cccc(O)c2)[C@@H](C)C1)NC(=O)[C@H]1Cc2ccc(O)cc2CN1 [JDTic, (3R)-7-Hydroxy-N-((1S)-1-{[(3R,4R)-4-(3-hydroxyphenyl)-3,4-dimethyl-1-piperidinyl]methyl}-2-methylpropyl)-1,2,3,4-tetrahydro-3-isoquinolinecarboxamide] showed a fraction unbound at 5 h, 5 μM [1] of 0.19, a fraction unbound at 5 h, 5 μM [2, 6] of 0.07 and a fraction unbound at 5 h, 5 μM [2, 7] of 0.18. The fraction unbound at 5 h, 5 μM ([2]; assumed at least 3-fold lower than in homogenate, read-out: Fu,brain (in vivo est.)) was < 0.0233, the Papp A→B at 120 min, 5 μM [3] was 0.5 ×10⁻⁶ cm/s and the Papp B→A at 120 min, 5 μM [3] was 24 ×10⁻⁶ cm/s. The efflux ratio at 120 min, 5 μM [3] was 48, the “Active transport / P-gp-mediated efflux” value [4] was “showed P-gp-mediated efflux; also recorded: very high efflux ratio” and the Behavioral effects observed ([5]; 100 mg kg^-1) was “Only mild behavioral effects, such as hiccup-like spasms and shivering”. For the same compound, the Fatalities ([5]; 100 mg kg^-1) was “no fatalities”.
Oc1ccc2c3c1O[C@H]1c4[nH]c5c(c4C[C@@]4(O)[C@@H](C2)N(CC2CC2)CC[C@]314)C[C@@]1(O)[C@H]2Cc3ccc(O)c4c3[C@@]1(CCN2CC1CC1)[C@H]5O4 [nor-BNI, norbinaltorphimine] showed a fraction unbound at 5 h, 5 μM [1] of 0.51, a fraction unbound at 5 h, 5 μM [2, 6] of 0.12 and a fraction unbound at 5 h, 5 μM [2, 7] of 0.28. The fraction unbound at 5 h, 5 μM ([2]; mouse, assumed at least 3-fold lower than in homogenate, read-out: Fu,brain (in vivo est.)) was < 0.04, the Papp A→B at 120 min, 5 μM [3] was 0.2 ×10⁻⁶ cm/s and the Papp B→A at 120 min, 5 μM [3] was 0.3 ×10⁻⁶ cm/s. For the same compound, the “Active transport / P-gp-mediated efflux” value [4] was “did not; also recorded: No active transport”, the Behavioral effects observed ([5]; 100 mg kg^-1) was “Only mild behavioral effects, such as hiccup-like spasms and shivering” and the Fatalities ([5]; 100 mg kg^-1) was “no fatalities”.
In the case of N=C(N)Nc1ccc2[nH]c3c(c2c1)C[C@@]1(O)[C@H]2Cc4ccc(O)c5c4[C@@]1(CCN2CC1CC1)[C@H]3O5 [GNTI, 5’-guanidinonaltrindole], the fraction unbound at 5 h, 5 μM [1] was 0.28, the fraction unbound at 5 h, 5 μM [2, 6] was 0.07 and the fraction unbound at 5 h, 5 μM [2, 7] was 0.19. The Papp A→B at 120 min, 5 μM [3] was 0.4 ×10⁻⁶ cm/s, the Papp B→A at 120 min, 5 μM [3] was 0.6 ×10⁻⁶ cm/s and the efflux ratio at 120 min, 5 μM [3] was 1.5. For the same compound, the “Active transport / P-gp-mediated efflux” value [4] was “did not; also recorded: No active transport”, the Fatalities ([5]; 10 mg kg^-1, 15 mice monitored for at least 30 minutes) was “no fatalities” and the “Time to death after injection” value ([5]; 30 mg kg^-1) was ≤ 11 min. The Fatalities ([5]; 30 mg kg^-1, three mice) was “all three mice unexpectedly became ataxic, followed by convulsions and death”.
